In patent US11046699B2, “Pyrazolo-pyrimidin-amino-cycloalkyl compounds and their therapeutic uses” (RAPT THERAPEUTICS, INC., priority 2018, dated 2021) one finds IC50 data, which are given here for 30 molecules.

Where a name gives a salt, the structure may show the parent alone. Read-outs that look alike come from different tables or passages of the source.

For the experiment, the target named is GCN2 (Homo sapiens, UniProt Q9P2K8). Nature of the experiment: GCN2 enzymatic endpoint assay: phosphorylation of GFP-eIF2α measured by TR-FRET (Lanthascreen). Format: biochemical. The method, boiled down: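 Phosphorylated eIF2α read by Lanthascreen TR-FRET (acceptor 520 nm over donor 495 nm) after EDTA stop. The reaction ran 90 min at room temperature on 80 nM GFP-eIF2α with 2 μM ATP.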

[1] abbreviates: tested as described in Example 77, compound and/or hydrochloride, dihydrochloride or trifluoroacetic acid salt, read-out: IC 50 Activity.
Setting [2] is: GCN2 biochemical IC50, 4 nM GCN2, 2 μM ATP, 80 nM GFP-eIF2α, 90 min RT, read-out: GCN2 activity.

Sequence of GCN2 (Q9P2K8 whole entry): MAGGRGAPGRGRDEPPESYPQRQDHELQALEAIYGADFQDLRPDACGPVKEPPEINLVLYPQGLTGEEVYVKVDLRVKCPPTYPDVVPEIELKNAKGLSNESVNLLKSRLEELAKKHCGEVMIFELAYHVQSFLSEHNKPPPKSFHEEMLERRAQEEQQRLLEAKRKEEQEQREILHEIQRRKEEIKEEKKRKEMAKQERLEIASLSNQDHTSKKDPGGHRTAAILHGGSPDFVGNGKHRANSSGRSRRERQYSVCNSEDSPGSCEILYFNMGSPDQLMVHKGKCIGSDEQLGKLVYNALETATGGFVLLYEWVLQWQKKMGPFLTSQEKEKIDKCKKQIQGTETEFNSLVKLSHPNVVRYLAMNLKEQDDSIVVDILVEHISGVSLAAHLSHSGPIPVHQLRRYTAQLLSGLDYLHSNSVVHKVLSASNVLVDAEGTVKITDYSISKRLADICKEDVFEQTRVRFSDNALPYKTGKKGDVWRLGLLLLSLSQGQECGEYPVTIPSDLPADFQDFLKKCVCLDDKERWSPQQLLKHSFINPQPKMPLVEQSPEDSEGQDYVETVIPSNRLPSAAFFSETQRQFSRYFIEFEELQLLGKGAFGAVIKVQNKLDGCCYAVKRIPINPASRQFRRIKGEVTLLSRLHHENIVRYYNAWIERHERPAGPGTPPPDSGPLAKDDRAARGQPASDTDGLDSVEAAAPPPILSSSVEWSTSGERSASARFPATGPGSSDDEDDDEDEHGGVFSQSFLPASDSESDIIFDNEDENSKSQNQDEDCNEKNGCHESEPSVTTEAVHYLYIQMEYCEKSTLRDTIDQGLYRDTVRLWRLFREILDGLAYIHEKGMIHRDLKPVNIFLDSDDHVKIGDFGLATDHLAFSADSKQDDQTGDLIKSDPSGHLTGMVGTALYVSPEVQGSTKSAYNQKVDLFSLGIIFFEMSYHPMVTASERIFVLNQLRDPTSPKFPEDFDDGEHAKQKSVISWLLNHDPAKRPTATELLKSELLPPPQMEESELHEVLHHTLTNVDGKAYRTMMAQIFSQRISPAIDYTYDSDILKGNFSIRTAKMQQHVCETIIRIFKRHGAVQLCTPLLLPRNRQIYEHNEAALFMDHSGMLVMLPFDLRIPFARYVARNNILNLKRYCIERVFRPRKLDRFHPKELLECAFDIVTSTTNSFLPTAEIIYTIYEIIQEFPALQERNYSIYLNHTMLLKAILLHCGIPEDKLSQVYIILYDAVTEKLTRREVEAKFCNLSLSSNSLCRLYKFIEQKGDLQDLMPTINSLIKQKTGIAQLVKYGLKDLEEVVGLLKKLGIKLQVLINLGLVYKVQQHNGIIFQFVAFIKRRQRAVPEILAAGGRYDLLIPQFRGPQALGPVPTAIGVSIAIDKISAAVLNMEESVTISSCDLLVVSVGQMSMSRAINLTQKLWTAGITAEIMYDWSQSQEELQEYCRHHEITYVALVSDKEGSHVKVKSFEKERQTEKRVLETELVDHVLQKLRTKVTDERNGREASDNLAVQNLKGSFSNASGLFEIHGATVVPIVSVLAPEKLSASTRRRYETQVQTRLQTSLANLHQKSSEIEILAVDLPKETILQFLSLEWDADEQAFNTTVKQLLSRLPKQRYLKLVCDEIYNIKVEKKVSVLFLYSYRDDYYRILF

Regarding `N#Cc1cc(-n2nc(Br)c3cnc(N[C@@H]4CC[C@@H](C(=O)N5CCCC5)C4)nc32)cc2cccnc12` [6-(3-bromo-6-(((1R,3R)-3-(pyrrolidine-1-carbonyl)cyclopentyl)amino)-1H-pyrazolo [3,4-d]pyrimidin-1-yl)quinoline-8-carbonitrile], the IC50 under setting [1] lay in the range of 25 to 200 nM.

With `O=C([C@@H]1CC[C@@H](Nc2ncc3c(Br)nn(-c4cc(F)c5ncccc5c4)c3n2)C1)N1CCN2C(=O)COCC2C1` (stereo partly drawn) [8-((1R,3R)-3-((3-bromo-1-(8-fluoroquinolin-6-yl)-1H-pyrazolo[3,4-d]pyrimidin-6-yl)amino)cyclopentane-1-carbonyl)hexahydropyrazino [2,1-c][1,4]oxazin-4(3H)-one], the IC50 under setting [1] fell in the range of 25 to 200 nM.

In the case of `COCCNC(=O)[C@]1(C(C)C)CC[C@@H](Nc2ncc3c(Br)nn(-c4ccc(-c5nnc(C)s5)c(CCC#N)c4)c3n2)C1` [(1R,3R)-3-[[3-bromo-1-[3-(2-cyanoethyl)-4-(5-methyl-1,3,4-thiadiazol-2-yl)phenyl]pyrazolo[3,4-d]pyrimidin-6-yl]amino]-1-isopropyl-N-(2-methoxyethyl)cyclopentane-carboxamide], the IC50 under setting [1] fell in the range of 25 to 200 nM.

On to `CNC(=O)[C@]1(C)CC[C@@H](Nc2ncc3c(Br)nn(-c4cc(C#N)cc(OCC(C)O)c4)c3n2)C1` (stereo partly drawn) [(1R,3R)-3-[[3-bromo-1-[3-cyano-5-(2-hydroxypropoxy)phenyl]pyrazolo [3,4-d]pyrimidin-6-yl]amino]-N,1-dimethyl-cyclopentanecarboxamide], for which the IC50 under setting [1] was in the range of 25 to 200 nM.

Regarding `CNC(=O)C1(C)CC[C@@H](Nc2ncc3c(Br)nn(-c4cc(CO)cc(C(C)(C)C)c4)c3n2)C1` (stereo partly drawn), the IC50 under setting [1] lay in the range of 25 to 200 nM.

With `Cc1nnc(-c2ccc(-n3nc(Br)c4cnc(N[C@@H]5CC[C@@](C)(C(N)=O)C5)nc43)cc2)s1` [Example 60, (1R,3R)-3-((3-bromo-1-(4-(5-methyl-1,3,4-thiadiazol-2-yl)phenyl)-1H-pyrazolo[3,4-d]pyrimidin-6-yl)amino)-1-methylcyclopentane-1-carboxamide], the IC50 under setting [2] was in the range of 25 to 200 nM.

Consider `C[C@H]1CN(C(=O)[C@@H]2CC[C@@H](Nc3ncc4c(Br)nn(-c5ccc6ncccc6c5)c4n3)C2)CCO1` [((1R,3R)-3-((3-bromo-1-(quinolin-6-yl)-1H-pyrazolo[3,4-d]pyrimidin-6-yl)amino)cyclo-pentyl)((S)-2-methylmorpholino)methanone], for which, under setting [1], the IC50 lay within 25 to 200 nM.

Consider `CNC(=O)[C@]1(C)CC[C@@H](Nc2ncc3c(Br)nn(-c4cc(CC#N)c5nccnc5c4)c3n2)C1` [(1R,3R)-3-[[3-bromo-1-[8-(cyanomethyl)quinoxalin-6-yl]pyrazolo[3,4-d]pyrimidin-6-yl]amino]-N,1-dimethyl-cyclopentane-carboxamide], for which the IC50 under setting [1] lay in the range of 25 to 200 nM.

In the case of `CNC(=O)[C@]1(C)CC[C@@H](Nc2ncc3c(Br)nn(-c4cc(C#N)cc(OCC#N)c4)c3n2)C1` [(1R,3R)-3-[[3-bromo-1-[3-cyano-5-(cyanomethoxy)phenyl]pyrazolo[3,4-d]pyrimidin-6-yl]amino]-N,1-dimethyl-cyclopentanecarboxamide], under setting [1], the IC50 is 25 to 200 nM.

As for `CNC(=O)[C@]1(C)CC[C@@H](Nc2ncc3c(Br)nn(-c4cc(Cl)cc(CCC#N)c4)c3n2)C1`, the IC50 under setting [1] fell in the range of 25 to 200 nM.

Regarding `CNC(=O)[C@]1(C)CC[C@@H](Nc2ncc3c(Br)nn(-c4cc(C#N)cc(OC5CNC5)c4)c3n2)C1` [(1R,3R)-3-[[1-[3-(azetidin-3-yloxy)-5-cyano-phenyl]-3-bromo-pyrazolo[3,4-d]pyrimidin-6-yl]amino]-N,1-dimethyl-cyclopentanecarboxamide], the IC50 under setting [1] is 25 to 200 nM.

As to `CNC(=O)[C@]1(C)CC[C@@H](Nc2ncc3c(Br)nn(-c4ccc5c(c4)OC(C)(C)C(=O)N5C)c3n2)C1` [(1R,3R)-3-[[3-bromo-1-(2,2,4-trimethyl-3-oxo-1,4-benzoxazin-7-yl)pyrazolo [3,4-d]pyrimidin-6-yl]amino]-N,1-dimethyl-cyclopentanecarboxamide], under setting [1], the IC50 lay in the range of 25 to 200 nM.

Consider `CNC(=O)[C@]1(C)CC[C@@H](Nc2ncc3c(Br)nn(-c4cnc5c(CCN)cccc5c4)c3n2)C1` [(1R,3R)-3-[[1-[8-(2-aminoethyl)-3-quinolyl]-3-bromo-pyrazolo[3,4-d]pyrimidin-6-yl]amino]-N,1-dimethyl-cyclopentane-carboxamide], for which, under setting [1], the IC50 lay in the range of 25 to 200 nM.

As for `O=C(NCCN1CCOCC1)[C@@H]1CC[C@@H](Nc2ncc3c(Br)nn(-c4ccc5ncccc5c4)c3n2)C1` [(1R,3R)-3-((3-bromo-1-(quinolin-6-yl)-1H-pyrazolo[3,4-d]pyrimidin-6-yl)amino)-N-(2-morpholinoethyl)cyclopentane-1-carboxamide], under setting [1], the IC50 is 25 to 200 nM.

For `CNC(=O)[C@]1(C)CC[C@@H](Nc2ncc3c(Br)nn(-c4cc(CCO)c5ncccc5c4)c3n2)C1` [Example 29, (1R,3R)-3-((3-bromo-1-(8-(2-hydroxyethyl)quinolin-6-yl)-1H-pyrazolo[3,4-d]pyrimidin-6-yl)amino)-N,1-dimethylcyclopentane-1-carboxamide hydrochloride], the IC50 under setting [2] was less than 25 nM.

Turning to `COCCNC(=O)[C@@H]1CC[C@@H](Nc2ncc3c(Br)nn(-c4ccc5nccn5c4)c3n2)C1` [(1R,3R)-3-((3-bromo-1-(imidazo[1,2-a]pyridin-6-yl)-1H-pyrazolo[3,4-d]pyrimidin-6-yl)amino)-N-(2-methoxyethyl)cyclopentane-1-carboxamide], the IC50 under setting [1] was in the range of 500 to 1000 nM.

For `CC(C)NC(=O)CN(C)C(=O)[C@@H]1CC[C@@H](Nc2ncc3c(Br)nn(-c4ccc5ncccc5c4)c3n2)C1` [(1R,3R)-3-((3-bromo-1-(quinolin-6-yl)-1H-pyrazolo[3,4-d]pyrimidin-6-yl)amino)-N-(2-(isopropylamino)-2-oxoethyl)-N-methylcyclo-pentane-1-carboxamide], the IC50 under setting [1] fell in the range of 25 to 200 nM.

With `CNC(=O)[C@]1(C)CC[C@@H](Nc2ncc3c(Br)nn(-c4ccc(-c5ncc(C)[nH]5)cc4)c3n2)C1` [(1R,3R)-3-[[3-bromo-1-[4-(5-methyl-1H-imidazol-2-yl)phenyl]pyrazolo[3,4-d]pyrimidin-6-yl]amino]-N,1-dimethyl-cyclopentanecarboxamide], under setting [1], the IC50 was 25 to 200 nM.

For `CC1(C(=O)N2CNC(=O)C2)CC[C@@H](Nc2ncc3c(Br)nn(-c4cc(F)c5ncccc5c4)c3n2)C1` (stereo partly drawn) [1-[(3R)-3-[[3-bromo-1-(8-fluoro-6-quinolyl)pyrazolo[3,4-d]pyrimidin-6-yl]amino]-1-methyl-cyclopentanecarbonyl]imidazolidin-4-one], the IC50 under setting [1] was less than 25 nM.

For `CNC(=O)CC1CC(Nc2ncc3c(Br)nn(-c4cc(CCN)c5ccccc5c4)c3n2)C1` (stereo not drawn) [2-[3-[[1-[4-(2-aminoethyl)-2-naphthyl]-3-bromo-pyrazolo[3,4-d]pyrimidin-6-yl]amino]cyclobutyl]-N-methyl-acetamide; 2,2,2-trifluoroacetic acid], the IC50 under setting [1] was in the range of 25 to 200 nM.

In the case of `CNC(=O)[C@]1(C)CC[C@@H](Nc2ncc3c(Br)nn(-c4cc(F)cc(C(N)=O)c4)c3n2)C1` [3-[3-bromo-6-[[(1R,3R)-3-methyl-3-(methylcarbamoyl)cyclopentyl]amino]pyrazolo[3,4-d]pyrimidin-1-yl]-5-fluoro-benzamide], under setting [1], the IC50 was in the range of 25 to 200 nM.

For the molecule `CNC(=O)[C@]1(C)CC[C@@H](Nc2ncc3c(Br)nn(-c4ccc(-c5ncco5)c([C@@H](C)C#N)c4)c3n2)C1` [(1R,3R)-3-[[3-bromo-1-[3-[(1R)-1-cyanoethyl]-4-oxazol-2-yl-phenyl]pyrazolo[3,4-d]pyrimidin-6-yl]amino]-N,1-dimethyl-cyclopentane-carboxamide], under setting [1], the IC50 lay in the range of 25 to 200 nM.

With `CN(CC(C)(C)O)C(=O)[C@]1(C)CC[C@@H](Nc2ncc3c(Br)nn(-c4cc(F)c5ncccc5c4)c3n2)C1` [(1R,3R)-3-[[3-bromo-1-(8-fluoro-6-quinolyl)pyrazolo[3,4-d]pyrimidin-6-yl]amino]-N-(2-hydroxy-2-methyl-propyl)-N,1-dimethyl-cyclopentanecarboxamide], under setting [1], the IC50 is less than 25 nM.

For `CNC(=O)[C@]1(C)CC[C@@H](Nc2ncc3c(Br)nn(-c4ccc5nc(N(C)C)ncc5c4)c3n2)C1`, the IC50 under setting [1] is 25 to 200 nM.

`CNC(=O)[C@]1(CC(F)F)CC[C@@H](Nc2ncc3c(Br)nn(-c4ccc(-c5cccnc5)c(C#N)c4)c3n2)C1` [(1R,3R)-3-[[3-bromo-1-[3-cyano-4-(3-pyridyl)phenyl]pyrazolo[3,4-d]pyrimidin-6-yl]amino]-1-(2,2-difluoroethyl)-N-methyl-cyclopentanecarboxamide]: the IC50 under setting [1] is 25 to 200 nM.

On to `Cc1nnc(-c2ccc(-n3nc(Br)c4cnc(N[C@@H]5CC[C@@]6(CCNC6=O)C5)nc43)cc2CCC#N)s1`, for which, under setting [1], the IC50 fell in the range of 25 to 200 nM.

As for `CNc1ncc2cc(-n3nc(Br)c4cnc(N[C@@H]5CCC(C)(O)C5)nc43)ccc2n1` (stereo partly drawn), the IC50 under setting [1] was 25 to 200 nM.

`CNC(=O)[C@]1(CC(F)F)CC[C@@H](Nc2ncc3c(Br)nn(-c4ccc(-c5nnc(C)s5)c(CCC#N)c4)c3n2)C1` [Example 53, (1R,3R)-3-((3-bromo-1-(3-(2-cyanoethyl)-4-(5-methyl-1,3,4-thiadiazol-2-yl)phenyl)-1H-pyrazolo[3,4-d]pyrimidin-6-yl)amino)-1-(2,2-difluoroethyl)-N-methylcyclopentane-1-carboxamide; 2,2,2-trifluoroacetic acid]: under setting [2], the IC50 is 25 to 200 nM.

In the case of `CNC(=O)[C@]1(C)CC[C@@H](Nc2ncc3c(Br)nn(-c4cc(C5CNC5)c5ncccc5c4)c3n2)C1` [(1R,3R)-3-[[1-[8-(azetidin-3-yl)-6-quinolyl]-3-bromo-pyrazolo[3,4-d]pyrimidin-6-yl]amino]-N,1-dimethyl-cyclopentane-carboxamide], under setting [1], the IC50 is 25 to 200 nM.

Turning to `CNC(=O)C1(C)CC[C@@H](Nc2ncc3c(Br)nn(-c4cc(Cl)cc(CO)c4)c3n2)C1` (stereo partly drawn) [(3R)-3-[[3-bromo-1-[3-chloro-5-(hydroxy-methyl)phenyl]pyrazolo[3,4-d]pyrimidin-6-yl]amino]-N,1-dimethyl-cyclopentane-carboxamide], the IC50 under setting [1] fell in the range of 25 to 200 nM.
